Where a name gives a salt, the structure may show the parent alone.
Target: T1, α7-subtype of nicotinic receptors (Rattus norvegicus, UniProt Q05941)
T1 construct: Cerebral cortices from male Wistar rats (150–250 g) are homogenised; from tissue; host or cells: rat cerebral cortex membrane homogenate
Assay: In vitro inhibition of 3H-α-bungarotoxine binding in rat brain
Conditions: rat cerebral cortex homogenate; 3H-α-bungarotoxine 2 nM; 2 hours at 37° C

T1 sequence (Q05941 23-502): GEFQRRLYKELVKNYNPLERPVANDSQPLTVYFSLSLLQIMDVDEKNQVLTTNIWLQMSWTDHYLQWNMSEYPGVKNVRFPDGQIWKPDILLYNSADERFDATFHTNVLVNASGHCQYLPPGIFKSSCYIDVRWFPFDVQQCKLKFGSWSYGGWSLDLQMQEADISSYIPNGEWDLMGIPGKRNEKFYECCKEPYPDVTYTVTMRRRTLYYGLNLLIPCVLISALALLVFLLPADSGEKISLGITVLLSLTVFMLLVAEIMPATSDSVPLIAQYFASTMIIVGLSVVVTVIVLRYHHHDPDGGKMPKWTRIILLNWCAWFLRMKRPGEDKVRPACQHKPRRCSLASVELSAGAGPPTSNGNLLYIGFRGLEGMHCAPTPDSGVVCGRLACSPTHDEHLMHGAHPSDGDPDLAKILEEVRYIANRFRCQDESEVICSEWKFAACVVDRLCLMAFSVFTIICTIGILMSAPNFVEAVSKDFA

SMILES | IC50 [nM]
c1cc(-c2ccc(N3CCN4CCC3CC4)nn2)cs1 [Compound 1, 4-[6-Thien-3-yl-pyridazin-3-yl]-1,4-diazabicyclo[3.2.2]nonane fumaric acid salt] | 38
c1csc(-c2ccc(N3CCN4CCC3CC4)nn2)c1 [Compound 4, 4-(6-Thien-2-yl-pyridazin-3-yl)-1,4-diazabicyclo[3.2.2]nonane fumaric acid salt] | 44
c1c[se]c(-c2ccc(N3CCN4CCC3CC4)nn2)c1 [Compound 5, 4-(6-Selenophen-2-yl-pyridazin-3-yl)-1,4-diazabicyclo[3.2.2]nonane fumaric acid salt] | 6.5
c1cc(-c2ccc(N3CCN4CCC3CC4)nn2)co1 [Compound 7, 4-(6-Furan-3-yl-pyridazin-3-yl)-1,4-diazabicyclo[3.2.2]nonane fumaric acid salt] | 22
c1ccc(-c2ccc(N3CCN4CCC3CC4)cc2)cc1 [Compound 34, 4-Biphenyl-4-yl-1,4-diazabicyclo[3.2.2]nonane fumaric acid salt] | 24

From patent publication US7223753B2, “Diazabicyclic biaryl derivatives” (Neurosearch A/S, priority 2002, dated 2007)
